Source: doi:10.1101/2021.09.30.462449v1 (biorxiv, 2021)

Key:
Test in all cases: biochemical
Conditions in all cases: read-out: % inhibition mean (Z'Lyte)
[1] = target: ADRBK1 (GRK2) (Homo sapiens, UniProt P25098)
[2] = target: AMPK (A2/B1/G2) (Homo sapiens, UniProt P54646)
[3] = target: CAMK1D (CaMKI delta) (Homo sapiens, UniProt Q8IU85)
[4] = target: CAMK2B (CaMKII beta) (Homo sapiens, UniProt Q13554)
[5] = target: CSF1R (FMS) (Homo sapiens, UniProt P07333)
[6] = target: CSNK1D (CK1 delta) (Homo sapiens, UniProt P48730)
[7] = target: CSNK1G1 (CK1 gamma 1) (Homo sapiens, UniProt Q9HCP0)
[8] = target: CSNK1G3 (CK1 gamma 3) (Homo sapiens, UniProt Q9Y6M4)
[9] = target: DNA-PK (Homo sapiens, UniProt P78527)
[10] = target: DYRK1A (Homo sapiens, UniProt Q13627)
[11] = target: EPHA5 (Homo sapiens, UniProt P54756)
[12] = target: ERBB2 (HER2) (Homo sapiens, UniProt P04626)
[13] = target: FGFR3 (Homo sapiens, UniProt P22607)
[14] = target: HIPK3 (YAK1) (Homo sapiens, UniProt Q9H422)
HIPK3 (YAK1), sequence (Q9H422 whole entry): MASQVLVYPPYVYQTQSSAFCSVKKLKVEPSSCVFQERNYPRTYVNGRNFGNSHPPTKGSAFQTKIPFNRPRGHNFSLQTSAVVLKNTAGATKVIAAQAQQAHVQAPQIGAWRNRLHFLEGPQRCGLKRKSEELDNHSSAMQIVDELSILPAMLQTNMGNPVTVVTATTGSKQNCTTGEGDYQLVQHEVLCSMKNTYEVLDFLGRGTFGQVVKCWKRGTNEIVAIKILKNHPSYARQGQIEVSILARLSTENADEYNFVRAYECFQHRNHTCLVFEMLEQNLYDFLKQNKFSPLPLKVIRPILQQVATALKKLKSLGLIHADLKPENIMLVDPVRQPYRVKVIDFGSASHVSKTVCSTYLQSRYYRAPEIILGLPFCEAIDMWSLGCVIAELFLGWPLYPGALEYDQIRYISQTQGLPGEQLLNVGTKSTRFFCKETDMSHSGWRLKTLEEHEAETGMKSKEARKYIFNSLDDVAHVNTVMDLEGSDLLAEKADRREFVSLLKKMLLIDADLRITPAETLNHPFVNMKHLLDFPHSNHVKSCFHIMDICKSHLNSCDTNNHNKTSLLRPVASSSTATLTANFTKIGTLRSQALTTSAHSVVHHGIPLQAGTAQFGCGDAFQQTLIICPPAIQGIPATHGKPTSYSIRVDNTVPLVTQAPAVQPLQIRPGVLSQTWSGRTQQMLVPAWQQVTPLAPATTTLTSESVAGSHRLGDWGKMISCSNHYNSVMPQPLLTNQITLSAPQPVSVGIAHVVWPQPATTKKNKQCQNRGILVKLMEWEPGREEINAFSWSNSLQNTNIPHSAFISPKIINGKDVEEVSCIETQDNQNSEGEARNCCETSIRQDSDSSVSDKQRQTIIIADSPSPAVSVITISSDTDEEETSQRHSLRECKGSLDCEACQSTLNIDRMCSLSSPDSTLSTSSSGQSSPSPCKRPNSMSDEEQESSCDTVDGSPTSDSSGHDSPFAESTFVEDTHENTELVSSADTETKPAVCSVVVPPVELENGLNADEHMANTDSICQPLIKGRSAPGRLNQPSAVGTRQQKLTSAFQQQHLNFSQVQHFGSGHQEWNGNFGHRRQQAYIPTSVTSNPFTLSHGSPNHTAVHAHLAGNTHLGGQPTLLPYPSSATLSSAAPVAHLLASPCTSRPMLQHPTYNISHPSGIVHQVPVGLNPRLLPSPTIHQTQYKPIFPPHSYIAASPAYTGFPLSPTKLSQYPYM

[15] = target: HIPK4 (Homo sapiens, UniProt Q8NE63)
[16] = target: IRAK4 (Homo sapiens, UniProt Q9NWZ3)
[17] = target: JAK3 (Homo sapiens, UniProt P52333)
[18] = target: KIT V560G (Homo sapiens, UniProt P10721, V560G)
[19] = target: MAP3K9 (MLK1) (Homo sapiens, UniProt P80192)
MAP3K9 (MLK1), sequence (P80192 whole entry): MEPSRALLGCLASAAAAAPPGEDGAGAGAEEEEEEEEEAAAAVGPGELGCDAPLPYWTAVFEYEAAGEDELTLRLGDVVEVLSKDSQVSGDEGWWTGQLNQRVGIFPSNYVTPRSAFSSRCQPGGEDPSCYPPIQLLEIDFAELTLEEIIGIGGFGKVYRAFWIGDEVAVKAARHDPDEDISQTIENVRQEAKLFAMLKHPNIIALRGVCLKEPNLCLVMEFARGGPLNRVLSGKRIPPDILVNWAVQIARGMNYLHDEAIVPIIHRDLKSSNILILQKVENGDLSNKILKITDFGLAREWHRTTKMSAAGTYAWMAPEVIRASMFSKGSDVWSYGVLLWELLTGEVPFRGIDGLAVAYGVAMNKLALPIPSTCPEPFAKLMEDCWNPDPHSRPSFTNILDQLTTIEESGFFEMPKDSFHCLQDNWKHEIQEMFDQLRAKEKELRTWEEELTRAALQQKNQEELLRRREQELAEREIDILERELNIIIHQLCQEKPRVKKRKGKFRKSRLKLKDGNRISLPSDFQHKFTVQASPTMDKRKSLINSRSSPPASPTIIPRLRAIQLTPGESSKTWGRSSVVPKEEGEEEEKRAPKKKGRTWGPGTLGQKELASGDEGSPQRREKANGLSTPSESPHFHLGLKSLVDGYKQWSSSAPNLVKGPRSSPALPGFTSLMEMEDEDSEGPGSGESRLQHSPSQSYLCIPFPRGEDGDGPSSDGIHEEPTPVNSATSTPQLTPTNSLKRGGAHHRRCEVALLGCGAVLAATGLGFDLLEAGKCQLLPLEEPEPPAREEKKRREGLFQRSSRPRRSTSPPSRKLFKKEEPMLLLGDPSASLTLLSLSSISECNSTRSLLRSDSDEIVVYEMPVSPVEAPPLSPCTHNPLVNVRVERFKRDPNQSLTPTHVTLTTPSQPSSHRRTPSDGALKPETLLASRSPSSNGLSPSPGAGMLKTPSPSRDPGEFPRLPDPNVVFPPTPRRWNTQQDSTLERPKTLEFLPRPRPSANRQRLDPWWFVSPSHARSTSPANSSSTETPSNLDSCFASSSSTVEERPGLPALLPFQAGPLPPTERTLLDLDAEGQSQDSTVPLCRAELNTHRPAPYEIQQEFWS

[20] = target: MAPK1 (ERK2) (Homo sapiens, UniProt P28482)
[21] = target: MAPK7 (ERK5) (Homo sapiens, UniProt Q13164)
[22] = target: MARK3 (Homo sapiens, UniProt P27448)
MARK3, sequence (P27448 whole entry): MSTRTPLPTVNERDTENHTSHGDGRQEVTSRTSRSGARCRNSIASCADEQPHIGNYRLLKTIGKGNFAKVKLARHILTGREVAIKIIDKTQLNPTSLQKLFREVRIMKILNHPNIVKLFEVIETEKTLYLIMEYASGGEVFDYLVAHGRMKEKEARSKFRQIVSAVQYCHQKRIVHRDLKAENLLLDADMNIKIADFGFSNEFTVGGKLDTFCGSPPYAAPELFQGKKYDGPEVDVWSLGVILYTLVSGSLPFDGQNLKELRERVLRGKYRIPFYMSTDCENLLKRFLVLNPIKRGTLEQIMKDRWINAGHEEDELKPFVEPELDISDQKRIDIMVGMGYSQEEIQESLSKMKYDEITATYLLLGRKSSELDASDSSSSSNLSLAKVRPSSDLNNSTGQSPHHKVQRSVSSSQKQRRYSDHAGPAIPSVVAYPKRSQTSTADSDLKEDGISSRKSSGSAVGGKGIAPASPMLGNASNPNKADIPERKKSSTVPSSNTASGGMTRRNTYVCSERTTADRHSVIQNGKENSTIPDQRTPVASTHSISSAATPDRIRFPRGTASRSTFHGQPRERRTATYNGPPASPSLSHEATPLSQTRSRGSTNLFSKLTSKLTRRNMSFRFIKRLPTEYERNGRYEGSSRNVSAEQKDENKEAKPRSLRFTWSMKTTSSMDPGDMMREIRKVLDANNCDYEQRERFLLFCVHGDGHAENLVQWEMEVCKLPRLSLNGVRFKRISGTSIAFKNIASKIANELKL

[23] = target: MUSK (Homo sapiens, UniProt O15146)
[24] = target: MYLK2 (skMLCK) (Homo sapiens, UniProt Q9H1R3)
[25] = target: NTRK3 (TRKC) (Homo sapiens, UniProt Q16288)
NTRK3 (TRKC), sequence (Q16288 whole entry): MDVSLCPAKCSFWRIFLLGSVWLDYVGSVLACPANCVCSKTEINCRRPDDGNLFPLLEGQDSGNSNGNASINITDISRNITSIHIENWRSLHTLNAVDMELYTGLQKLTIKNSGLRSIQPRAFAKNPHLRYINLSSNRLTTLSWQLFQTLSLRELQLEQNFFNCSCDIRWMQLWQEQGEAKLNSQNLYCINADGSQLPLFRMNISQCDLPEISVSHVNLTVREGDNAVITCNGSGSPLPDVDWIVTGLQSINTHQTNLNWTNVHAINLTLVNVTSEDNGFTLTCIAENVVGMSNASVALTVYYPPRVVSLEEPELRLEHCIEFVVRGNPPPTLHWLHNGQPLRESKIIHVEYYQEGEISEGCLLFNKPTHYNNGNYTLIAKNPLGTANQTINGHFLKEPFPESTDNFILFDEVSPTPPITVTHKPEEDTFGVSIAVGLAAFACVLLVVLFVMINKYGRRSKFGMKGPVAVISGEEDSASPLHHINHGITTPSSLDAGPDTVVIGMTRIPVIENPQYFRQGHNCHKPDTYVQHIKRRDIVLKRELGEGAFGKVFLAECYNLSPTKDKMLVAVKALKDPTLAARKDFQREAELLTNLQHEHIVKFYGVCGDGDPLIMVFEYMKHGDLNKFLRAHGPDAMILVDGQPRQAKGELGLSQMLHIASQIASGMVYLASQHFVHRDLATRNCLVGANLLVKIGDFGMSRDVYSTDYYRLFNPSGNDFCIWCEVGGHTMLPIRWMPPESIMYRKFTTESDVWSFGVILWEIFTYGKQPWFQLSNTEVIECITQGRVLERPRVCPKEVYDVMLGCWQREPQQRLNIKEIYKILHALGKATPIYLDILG

[26] = target: RAF1 (cRAF) Y340D Y341D (Homo sapiens, UniProt P04049, Y340D/Y341D)
RAF1 (cRAF) Y340D Y341D, sequence (P04049 whole entry Y340D/Y341D): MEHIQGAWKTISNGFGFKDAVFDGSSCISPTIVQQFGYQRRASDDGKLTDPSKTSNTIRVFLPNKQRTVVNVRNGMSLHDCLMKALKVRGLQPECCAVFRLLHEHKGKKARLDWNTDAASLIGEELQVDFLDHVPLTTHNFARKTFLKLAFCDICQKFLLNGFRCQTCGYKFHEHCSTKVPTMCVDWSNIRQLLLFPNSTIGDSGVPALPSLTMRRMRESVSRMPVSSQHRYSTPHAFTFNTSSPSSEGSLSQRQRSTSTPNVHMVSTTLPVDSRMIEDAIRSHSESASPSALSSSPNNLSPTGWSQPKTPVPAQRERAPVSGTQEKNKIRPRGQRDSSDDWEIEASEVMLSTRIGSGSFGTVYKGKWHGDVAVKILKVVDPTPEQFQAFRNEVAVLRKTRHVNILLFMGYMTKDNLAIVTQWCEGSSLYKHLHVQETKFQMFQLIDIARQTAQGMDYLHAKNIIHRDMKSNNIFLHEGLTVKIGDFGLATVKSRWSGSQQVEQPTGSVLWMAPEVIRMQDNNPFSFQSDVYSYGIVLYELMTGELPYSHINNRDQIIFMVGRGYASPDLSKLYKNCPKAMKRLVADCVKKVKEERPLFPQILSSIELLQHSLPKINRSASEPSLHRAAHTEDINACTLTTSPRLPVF

[27] = target: RET S891A (Homo sapiens, UniProt P07949, S891A)
[28] = target: TEK (TIE2) Y897S (Homo sapiens, UniProt Q02763, Y897S)

CAMK1D (CaMKI delta), sequence (Q8IU85 whole entry): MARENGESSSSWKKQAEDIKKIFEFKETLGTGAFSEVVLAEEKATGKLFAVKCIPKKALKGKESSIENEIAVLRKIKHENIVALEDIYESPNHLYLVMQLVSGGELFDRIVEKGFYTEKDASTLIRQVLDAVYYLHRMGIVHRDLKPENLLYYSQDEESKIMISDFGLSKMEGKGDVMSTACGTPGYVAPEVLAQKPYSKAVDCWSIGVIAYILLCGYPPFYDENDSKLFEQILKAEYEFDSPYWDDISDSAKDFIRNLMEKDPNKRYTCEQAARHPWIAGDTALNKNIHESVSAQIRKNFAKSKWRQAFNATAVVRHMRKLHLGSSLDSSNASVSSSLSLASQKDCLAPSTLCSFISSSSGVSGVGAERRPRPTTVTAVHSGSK

`COc1ccc2nc3cc(Cl)ccc3c(Nc3cc(CN4CCCC4)c(O)c(CN4CCCC4)c3)c2n1` [Pyronaridine, 4-[(7-Chloro-2-methoxybenzo[b][1,5]naphthyridin-10-yl)amino]-2,6-bis(1-pyrrolidinylmethyl)phenol phosphate (1:4)] was tested, and the inhibition at 1 µM [1] was -3%, the inhibition at 1 µM [2] was 1% and the inhibition at 1 µM [3] was -26%. For the same compound, the inhibition at 1 µM [4] was 1%, the inhibition at 1 µM [5] was -3% and the inhibition at 1 µM [6] was 5%. For the same compound, the inhibition at 1 µM [7] was 0%, the inhibition at 1 µM [8] was 2% and the inhibition at 1 µM [9] was 5%. The inhibition at 1 µM [10] was 3%, the inhibition at 1 µM [11] was -3% and the inhibition at 1 µM [12] was 2%. For the same compound, the inhibition at 1 µM [13] was -2%, the inhibition at 1 µM [14] was -2% and the inhibition at 1 µM [15] was 5%. It also gave an inhibition at 1 µM [16] of -6%, an inhibition at 1 µM [17] of 1% and an inhibition at 1 µM [18] of -5%. The inhibition at 1 µM [19] was 17%, the inhibition at 1 µM [20] was -1% and the inhibition at 1 µM [21] was 5%. The inhibition at 1 µM [22] was 2%, the inhibition at 1 µM [23] was -10% and the inhibition at 1 µM [24] was 7%. It also gave an inhibition at 1 µM [25] of 2%, an inhibition at 1 µM [26] of -9% and an inhibition at 1 µM [27] of -3%. It also gave an inhibition at 1 µM [28] of 2%.
